Patent US10336702B2, “Pharmaceutically active compounds” (BERGENBIO ASA, priority 2015, dated 2019)

Assays:
Akt3 = target: T1, Akt3 (Homo sapiens, UniProt Q9Y243); assay: Akt activation assay (PDK1-mediated activation, LANCE Ultra crosstide TR-FRET), Akt3; assay type: biochemical; conditions: read-out: Biological Assay 1 IC50 (nM) Akt3
T1 construct: unspecified tag, removed (detagged) (cleaved yes); purchased SignalChem and Proteros (Akt3); Merck Millipore (PDK1) 14-452 (PDK1); none given for Akt3
How it was run: (§1)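 Unactivated Akt (5 nM Akt1, 15 or 5 nM Akt2, 3 or 5 nM Akt3, by supplier) preincubated with compound, then activated by 5 nM PDK1 on DOPS/DOPC/PtdIns(3,4,5)P3 vesicles with 100 μM ATP and 100 nM Ulight-crosstide, pH 7.5, 30 min. Eu-anti-phospho-crosstide TR-FRET (665/615 nm); IC50 by 4-parameter fit.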

p-Akt1 in LNCaP cells = target: T2, p-Akt1 in LNCaP cells (Homo sapiens, UniProt P31749); assay: Phospho-Akt cellular SureFire assay, p-Akt1 in LNCaP cells; assay type: cell-based; conditions: read-out: Biological Assay 2 IC50 (nM) Akt1 LNCaP
T2 construct: SureFire assays to detect cellular p-Akt1, p-Akt2 and p-Akt3 levels in WM115 cells (Akt2/3) and LNCaP cells (Akt1); endogenous in cells; host or cells: LNCaP (ECACC 89110211)
How it was run: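 LNCaP cells, 5×10^4/well, seeded overnight, switched to 0.1% FBS medium without insulin stimulation, then compound for 15 min at 37 °C (0.3% DMSO). Lysate p-Akt1 (pThr308) by AlphaScreen SureFire, two 2 h incubations at room temperature; IC50 by 4-parameter fit.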

p-Akt3 in WM115 cells = target: T3, p-Akt3 in WM115 cells (Homo sapiens, UniProt Q9Y243); assay: Phospho-Akt cellular SureFire assay, p-Akt3 in WM115 cells; assay type: cell-based; conditions: insulin stimulated, read-out: Biological Assay 2 IC50 (nM) Akt3 WM115
T3 construct: SureFire assays to detect cellular p-Akt1, p-Akt2 and p-Akt3 levels in WM115 cells (Akt2/3) and LNCaP cells (Akt1); endogenous in cells; host or cells: WM115 (ECACC 91061232), insulin-stimulated
How it was run: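 WM115 cells were serum-reduced to 0.1% FBS, stimulated with 100 nM insulin for 10 min, then exposed to compound (0.3% DMSO) for 15 min at 37 °C. Lysates were assayed for Thr308-phosphorylated Akt3 by AlphaScreen SureFire using an isoform-specific total Akt3 capture antibody. IC50 was derived from a 4-parameter fit.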

Akt1 = target: T4, Akt1 (Homo sapiens, UniProt P31749); assay: Akt activation assay (PDK1-mediated activation, LANCE Ultra crosstide TR-FRET), Akt1; assay type: biochemical; conditions: read-out: Biological Assay 1 IC50 (nM) Akt1
T4 construct: unspecified tag, removed (detagged) (cleaved yes); purchased SignalChem and Proteros (Akt1); Merck Millipore (PDK1) 14-452 (PDK1); none given for Akt1
How it was run: as §1

p-Akt2 in WM115 cells = target: T5, p-Akt2 in WM115 cells (Homo sapiens, UniProt P31751); assay: Phospho-Akt cellular SureFire assay, p-Akt2 in WM115 cells; assay type: cell-based; conditions: insulin stimulated, read-out: Biological Assay 2 IC50 (nM) Akt2 WM115
T5 construct: SureFire assays to detect cellular p-Akt1, p-Akt2 and p-Akt3 levels in WM115 cells (Akt2/3) and LNCaP cells (Akt1); endogenous in cells; host or cells: WM115 (ECACC 91061232), insulin-stimulated
How it was run: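 WM115 cells in 0.1% FBS medium stimulated 10 min with 100 nM insulin, then exposed to compound for 15 min at 37° C (0.3% DMSO final). Lysates assayed by AlphaScreen with anti-(pThr308)Akt and isoform-specific total Akt2 antibodies; IC50 from 4-parameter fit.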

Akt2 = target: T6, Akt2 (Homo sapiens, UniProt P31751); assay: Akt activation assay (PDK1-mediated activation, LANCE Ultra crosstide TR-FRET), Akt2; assay type: biochemical; conditions: read-out: Biological Assay 1 IC50 (nM) Akt2
T6 construct: unspecified tag, removed (detagged) (cleaved yes); purchased SignalChem and Proteros (Akt2); Merck Millipore (PDK1) 14-452 (PDK1); none given for Akt2
How it was run: as §1

T4 sequence (P31749 whole entry): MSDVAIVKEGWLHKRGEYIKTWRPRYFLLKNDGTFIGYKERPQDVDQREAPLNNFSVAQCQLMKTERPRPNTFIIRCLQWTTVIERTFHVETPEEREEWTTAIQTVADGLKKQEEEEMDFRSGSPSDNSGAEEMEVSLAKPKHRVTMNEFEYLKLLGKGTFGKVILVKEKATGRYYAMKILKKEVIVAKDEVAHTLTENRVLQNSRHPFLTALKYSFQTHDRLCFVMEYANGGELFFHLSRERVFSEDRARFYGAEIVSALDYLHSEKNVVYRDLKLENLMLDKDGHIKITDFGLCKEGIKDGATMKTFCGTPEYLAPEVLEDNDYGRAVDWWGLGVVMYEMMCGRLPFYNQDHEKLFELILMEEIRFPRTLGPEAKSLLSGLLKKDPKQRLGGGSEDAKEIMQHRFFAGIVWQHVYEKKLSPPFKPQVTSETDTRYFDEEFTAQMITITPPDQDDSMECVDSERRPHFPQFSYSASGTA
T2 sequence (P31749 whole entry): as above
T3 sequence (Q9Y243 whole entry): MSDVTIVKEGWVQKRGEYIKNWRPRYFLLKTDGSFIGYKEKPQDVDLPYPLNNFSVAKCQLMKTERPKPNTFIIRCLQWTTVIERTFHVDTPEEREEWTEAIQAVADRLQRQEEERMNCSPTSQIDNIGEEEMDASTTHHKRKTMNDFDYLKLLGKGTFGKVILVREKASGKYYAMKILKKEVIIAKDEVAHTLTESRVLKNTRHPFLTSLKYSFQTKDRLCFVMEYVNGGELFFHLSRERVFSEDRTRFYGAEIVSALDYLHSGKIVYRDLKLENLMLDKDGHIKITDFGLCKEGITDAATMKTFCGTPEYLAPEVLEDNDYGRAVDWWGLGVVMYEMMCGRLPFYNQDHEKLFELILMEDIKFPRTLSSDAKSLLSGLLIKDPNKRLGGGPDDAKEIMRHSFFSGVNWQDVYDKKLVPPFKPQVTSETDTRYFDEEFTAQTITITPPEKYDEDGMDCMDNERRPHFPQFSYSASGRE
T1 sequence (Q9Y243 whole entry): as above
T5 sequence (P31751 whole entry): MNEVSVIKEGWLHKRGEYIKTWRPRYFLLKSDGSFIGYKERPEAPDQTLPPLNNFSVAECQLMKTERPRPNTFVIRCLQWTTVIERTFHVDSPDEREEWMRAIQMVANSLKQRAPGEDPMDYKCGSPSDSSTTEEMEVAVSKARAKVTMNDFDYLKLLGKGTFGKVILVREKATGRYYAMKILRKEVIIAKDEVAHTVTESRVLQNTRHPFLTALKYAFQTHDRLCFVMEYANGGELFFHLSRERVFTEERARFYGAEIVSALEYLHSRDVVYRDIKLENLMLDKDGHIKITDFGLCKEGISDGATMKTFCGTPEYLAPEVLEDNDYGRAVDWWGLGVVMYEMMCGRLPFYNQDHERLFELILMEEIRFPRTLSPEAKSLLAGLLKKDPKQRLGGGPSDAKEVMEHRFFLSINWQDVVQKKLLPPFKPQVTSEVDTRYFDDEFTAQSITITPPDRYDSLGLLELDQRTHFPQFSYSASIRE
T6 sequence (P31751 whole entry): as above

Row | Compound | IC50 (Akt3) [nM] | IC50 (p-Akt1 in LNCaP cells) [nM] | IC50 (p-Akt3 in WM115 cells) [nM] | IC50 (Akt1) [nM] | IC50 (p-Akt2 in WM115 cells) [nM] | IC50 (Akt2) [nM]
1 | CC(=O)N(C)[C@H]1CC[C@H](CC(=O)Nc2cnc(-c3ccc(C4(N)CCC4)cc3)c(-c3ccccc3F)c2)CC1 [Example 16, N-(6-(4-(1-aminocyclobutyl)phenyl)-5-(2-fluorophenyl)pyridin-3-yl)-2-(trans-4-(N-methylacetamido)cyclohexyl)acetamide] | 24 | 11000 | 45 | 7800 | 710 | 380
2 | C[C@]1(O)C[C@@](N)(c2ccc(-c3nnc(NC(=O)C[C@H]4CC[C@H](N5CCCCC5=O)CC4)cc3-c3ccccc3)cc2)C1 [Example A98, N-(6-(4-(trans-1-amino-3-hydroxy-3-methylcyclobutyl)phenyl)-5-phenylpyridazin-3-yl)-2-(trans-4-(2-oxopiperidin-1-yl)cyclohexyl)acetamide] | 4 | 1900 | 5 | 2600 | 320 | 53
3 | CC(=O)N(C)[C@H]1CC[C@H](CC(=O)Nc2cc(-c3ccsc3)c(-c3ccc([C@]4(N)C[C@H](F)C4)cc3)nn2)CC1 [Example 75, N-(6-(4-(trans-1-amino-3-fluorocyclobutyl)phenyl)-5-(thiophen-3-yl)pyridazin-3-yl)-2-(trans-4-(N-methylacetamido)cyclohexyl)acetamide] | 18 | > 30000 | 46 | > 16000 | 3200 | 580
4 | CC(C)C(=O)N(C)[C@H]1CC[C@H](CC(=O)Nc2cnc(-c3ccc(C(C)(C)N)cc3)c(-c3ccccc3)c2)CC1 [Example 4, N-(trans-4-(2-((6-(4-(2-aminopropan-2-yl)phenyl)-5-phenylpyridin-3-yl)amino)-2-oxoethyl)cyclohexyl)-N-methylisobutyramide] | 73 | > 30000 | 190 | > 30000 | 7400 | 7300
5 | CN(C(=O)C1CCC1)[C@H]1CC[C@H](CC(=O)Nc2cnc(-c3ccc(C(C)(C)N)cc3)c(-c3ccccc3)c2)CC1 [Example 47, N-(trans-4-(2-((6-(4-(2-aminopropan-2-yl)phenyl)-5-phenylpyridin-3-yl)amino)-2-oxoethyl)cyclohexyl)-N-methylcyclobutanecarboxamide] | 75 | > 30000 | 240 | > 30000 | 5300 | 6100
6 | COC(=O)N(C)[C@H]1CC[C@H](CC(=O)Nc2cnc(-c3ccc(C(C)(C)N)cc3)c(-c3ccccc3)c2)CC1 [Example 34, methyl (trans-4-(2-((6-(4-(2-aminopropan-2-yl)phenyl)-5-phenylpyridin-3-yl)amino)-2-oxoethyl)cyclohexyl)(methyl)carbamate] | 380 | > 15000 | 150 | > 29000 | 5200 | 6500
7 | CC(C)C(=O)N(C)[C@H]1CC[C@H](CC(=O)Nc2cc(-c3ccccc3)c(-c3ccc([C@]4(N)C[C@](C)(O)C4)cc3)nn2)CC1 [Example A79, N-(trans-4-(2-((6-(4-(trans-1-amino-3-hydroxy-3-methylcyclobutyl)phenyl)-5-phenylpyridazin-3-yl)amino)-2-oxoethyl)cyclohexyl)-N-methylisobutyramide] | 4 | 1900 | 10 | 3900 | 370 | 63
8 | NC1(c2ccc(-c3cnc(NC(=O)C[C@H]4CC[C@H](N5CCCC5=O)CC4)cc3-c3ccccc3)cc2)CCC1 [Example A71, N-(5-(4-(1-aminocyclobutyl)phenyl)-4-phenylpyridin-2-yl)-2-(trans-4-(2-oxopyrrolidin-1-yl)cyclohexyl)acetamide] | 15 | 3400 | 130 | 7500 | 1500 | 110
9 | CC(C)(N)c1ccc(-c2ncc(NC(=O)C[C@H]3CC[C@H](NC(=O)C4CC4)CC3)cc2-c2ccsc2)cc1 [Example 26, N-(trans-4-(2-((6-(4-(2-aminopropan-2-yl)phenyl)-5-(thiophen-3-yl)pyridin-3-yl)amino)-2-oxoethyl)cyclohexyl)cyclopropanecarboxamide] | 1600 | > 16000 | 380 | > 30000 | 9000 | 12000
10 | CC(=O)N(C)[C@H]1CC[C@H](CC(=O)Nc2cnc(-c3ccc([C@H](C)N)cc3)c(-c3ccccc3)c2)CC1 [Example 7, N-(6-(4-((S)-1-aminoethyl)phenyl)-5-phenylpyridin-3-yl)-2-(trans-4-(N-methylacetamido)cyclohexyl)acetamide] | 350 | > 30000 | 300 | > 30000 | 10000 | 9200
11 | CCC(=O)N(C)[C@H]1CC[C@H](CC(=O)Nc2cnc(-c3ccc(C4(N)CC4)c(F)c3)c(-c3ccccc3)c2)CC1 [Example A89, N-(trans-4-(2-((6-(4-(1-aminocyclopropyl)-3-fluorophenyl)-5-phenylpyridin-3-yl)amino)-2-oxoethyl)cyclohexyl)-N-methylpropionamide] | 80 | > 30000 | 130 | > 30000 | 8300 | 4000
12 | COC(=O)N(C(C)C)[C@H]1CC[C@H](CC(=O)Nc2cnc(-c3ccc(C4(N)CCC4)cc3)c(-c3ccccc3)c2)CC1 [Example 51, Methyl (trans-4-(2-((6-(4-(1-aminocyclobutyl)phenyl)-5-phenylpyridin-3-yl)amino)-2-oxoethyl)cyclohexyl)(isopropyl)carbamate] | 190 | > 30000 | 670 | 8900 | 9100 | 1500
13 | CCC(=O)N(C)[C@H]1CC[C@H](CC(=O)Nc2cnc(-c3ccc(C(C)(C)N)cc3)c(-c3ccccc3)c2)CC1 [Example A95, N-(trans-4-(2-((6-(4-(2-aminopropan-2-yl)phenyl)-5-phenylpyridin-3-yl)amino)-2-oxoethyl)cyclohexyl)-N-methylpropionamide] | 54 | > 30000 | 110 | > 30000 | 3100 | 3300
14 | CC(=O)N(C)[C@H]1CC[C@H](CC(=O)Nc2cc(-c3ccccc3)c(-c3ccc(C(C)(C)N)cc3)cn2)CC1 [Example 63, N-(5-(4-(2-aminopropan-2-yl)phenyl)-4-phenylpyridin-2-yl)-2-(trans-4-(N-methylacetamido)cyclohexyl)acetamide] | 300 | > 30000 | 360 | > 30000 | > 28000 | > 30000
15 | COC(=O)N(C)[C@H]1CC[C@H](CC(=O)Nc2cc(-c3ccccc3)c(-c3ccc(C(C)(C)N)cc3)nn2)CC1 [Example 56, Methyl (trans-4-(2-((6-(4-(2-aminopropan-2-yl)phenyl)-5-phenylpyridazin-3-yl)amino)-2-oxoethyl)cyclohexyl)(methyl)carbamate] | 100 | > 30000 | 330 | > 30000 | > 30000 | 10000
16 | CC(=O)N(C)[C@H]1CC[C@H](CC(=O)Nc2cc(-c3ccsc3)c(-c3ccc(C(C)(C)N)cc3)nn2)CC1 [Example A96, N-(6-(4-(2-aminopropan-2-yl)phenyl)-5-(thiophen-3-yl)pyridazin-3-yl)-2-(trans-4-(N-methylacetamido)cyclohexyl)acetamide] | 92 | > 30000 | 180 | > 30000 | 15000 | 10000
